These results are taken from patent US20170223976A1, “MODIFIED MILK POWDER CONTAINING 1,5-ANHYDRO-D-GLUCITOL” (NIHON STARCH CO., LTD., priority 2015, published 2017).

For one assay, the system named is CSH-1 gene. The assay can be described thus: CSH-1 gene expression in placental trophoblastic cells, real-time RT-PCR. The format is cell-based, human. The settings on record: 160 μg/mL 1,5-AG, after 72 hours. The procedure: The influence upon these two genes (PSG-1 and CSH-1) of 1,5-AG was analyzed by a real-time RT-PCR method using placental trophoblastic cells. As a preliminary study, the expression level of PSG-1 was analyzed at three concentrations (1 μg/mL or less, 40 μg/mL and 160 μg/mL of 1,5-AG) and for three sampling times (3, 24 and 72 hours). A test was conducted by the following method.
Human placental villous trophoblastic cells (ScienCell Research Laboratories)
The human placental villous trophoblastic cells were initiated in a T-75 flask by using a trophoblast medium (to be simply referred to as “medium” hereinafter) to be cultured in a CO2 incubator (5% CO2, 37° C., moistening). […] Then, the supernatant was removed by centrifugation (180 g, 5 minutes), a new medium was added to stir the cells, the number of the cells was counted by using a corpuscle calculating board, and a medium was used to achieve a target concentration (4.0×10^3 cells/100 μL). […]
The PCR reaction was carried out under the conditions of 95° C.·30 sec−(95° C.·10 sec−60° C.·30 sec)×45 cycles−95° C.·15 sec−55° C.·15 sec−95° C.·15 sec, and the dissociation curve of the PCR product was obtained after the end of the PCR reaction. The relative expression level was calculated by the ? […]

For another assay, the system named is PC12 cells. Put plainly: Determination of neurite outgrowth rate in PC12 cells (image count). The settings on record: for cells showing a neurite outgrowth rate of 1 time or more / cells showing a neurite outgrowth rate of 2 times or more: 96 hours. The format is cell-based. Here is the method: PSG-1 belongs to an immunoglobulin super family which includes some having the function of promoting neurogenesis. Then, the influence of 1,5-AG upon neuritogenesis was investigated. This was evaluated in a test system using PC12 cells which are generally used for the evaluation of neuritogenesis.
PC12 cells (Lot No. 48, Lot No. 51) (RIKEN cell bank, material 1)
DMEM medium prepared by adding 0.1% of FBS, 0.1% of HS, 1 ng/mL NGF and 1% of penicillin-streptomycin
PC12 cells were initiated in a T-75 flask by using a growth medium to be cultured in a CO2 incubator (5% CO2, 37° C., moistening). Medium exchange was carried out every 2 days, the cells were collected when 80% confluence was reached, and cells having a passage number of 2 were used in this test. Stated more specifically, after the cells were washed with D-PBS (−), the cells were separated by using 0.05% trypsin, and a growth medium was added to neutralize trypsin. Then, the supernatant was removed by centrifugation (180 g, 5 minutes), a growth medium was added to stir the cells, the number of the cells was counted by using a corpuscle calculating board, and a growth medium was used to achieve a target concentration (2.0×10^3 cells/100 μL).
A test was carried out at five concentrations (1.6, 8, 40, 200 and 1,000 μg/mL) of 1,5-AG. Stated more specifically, a 1,5-AG aqueous solution having a concentration of 100 mg/mL was diluted with water to prepare 100 times-concentrated solutions having concentrations of 0.16, 0.8, 4, 20 and 100 mg/mL. These 100 times-concentrated solutions were each added to a test medium in a ratio of 1/100 to achieve final concentrations of 1.6, 8, 40, 200 and 1,000 μg/mL and sterilized with a filter to be used in the test. As a negative control, water was added to a medium in a ratio of 1/100 and sterilized with a filter to be used in the test. As a positive control, a test medium containing a 100 ng/mL nerve growth factor (NGF) was used.
A growth medium was used to adjust the cells to a concentration of 2.0×10^3 cells/100 μL/well, and the cells were scattered in a collagen-coated 96-well plate to be cultured in a CO2 incubator (5% CO2, 37° C., moistening) for 24 hours. After culture, the medium was replaced by a sample-containing test medium (100 μL), and the cells were cultured in a CO2 incubator for 96 hours. After the end of culture, an image of the cells in each well was taken with a phase difference microscope and used for the measurement of nuetrite outgrowth rate, and nuclei and cytoplasms were fluorescent dyed by using a neurite outgrowth staining kit to measure the number of living cells and the amount of neurite outgrowth. These procedures were carried out five times each.
Based on the image taken above, the total number of cells, the number of cells showing the same or higher neurite outgrowth than the cell length and the number of cells showing neurites having a length 2 times or more than the cell length were measured from the image of the cells. The percentage (%) of cells showing neurite outgrowth was calculated from the measurement values.

The next assay has as its system insulinoma cell lines. The note with it: cited from earlier work.
The test system of another assay is type 2 diabetes model. The settings on record: in vivo; cited from earlier work.

The structures appear in SMILES notation.

As for `OC[C@H]1OC[C@H](O)[C@@H](O)[C@@H]1O` [1,5-AG, 1,5-anhydro-D-glucitol], the “expression level of CSH-1 gene relative to non-added section” value in the assay with CSH-1 gene is 0.92 time. In addition, in the assay with PC12 cells (40 μg/mL 1,5-AG), the “cells showing a neurite outgrowth rate of 1 time or more” value is recorded as 15.8% and the “cells showing a neurite outgrowth rate of 2 times or more” value is reported as 10.3%. In addition, in the assay on PC12 cells (200 μg/mL 1,5-AG), the “cells showing a neurite outgrowth rate of 1 time or more” value worked out at 18.7% and the “cells showing a neurite outgrowth rate of 2 times or more” value is reported as 10.4%. Also, the “cells showing a neurite outgrowth rate of 2 times or more, relative to non-added section” value in the assay on PC12 cells (40 and 200 μg/mL 1,5-AG) was “about 2 times”. The secretion of insulin entry with insulinoma cell lines is reported as “promotes the secretion of insulin”. The anti-diabetic effect entry in the assay with type 2 diabetes model was “anti-diabetic effect”.
